Measurements reported in the CheMixHub viscosity set.

Assay: xn = mol fraction of the nth substance listed

CN(C)CCCO + NCCCO
viscosity [mPa·s], 100 kPa
Conditions	x2 = 0.1	x2 = 0.1998	x2 = 0.2997	x2 = 0.4008	x2 = 0.5	x2 = 0.5024	x2 = 0.6004	x2 = 0.7021	x2 = 0.7992	x2 = 0.9007
293.15 K	8.883	10.61	12.71	15.1	18.49	18.49	21.41	24.67	29.63	34.66
303.15 K	6.062	7.04	8.322	9.824	11.73	11.73	13.48	15.36	18.09	20.64
313.15 K	4.35	5.099	5.838	6.628	7.819	7.819	8.782	9.908	11.62	13.22
323.15 K	3.23	3.72	4.206	4.668	5.389	5.389	6.034	6.779	7.862	8.889

CC(O)CN(C)C (stereo not drawn) + NCc1ccccc1
viscosity [mPa·s], 101 kPa
Conditions	x1 = 0.1003	x1 = 0.1998	x1 = 0.3	x1 = 0.4001	x1 = 0.5002	x1 = 0.5999	x1 = 0.7	x1 = 0.8	x1 = 0.8997
293.15 K	1.87	1.91	1.92	1.91	1.88	1.84	1.78	1.7	1.6
303.15 K	1.5	1.51	1.51	1.5	1.48	1.44	1.39	1.33	1.25
313.15 K	1.23	1.23	1.22	1.21	1.18	1.14	1.1	1.05	1
323.15 K	1.06	1.05	1.03	1.01	0.98	0.95	0.91	0.87	0.83

O=[N+]([O-])c1ccccc1O + Nc1ccccc1
viscosity [mPa·s], 101 kPa
Conditions	x1 = 0.07555	x1 = 0.1616	x1 = 0.246	x1 = 0.3265	x1 = 0.4134	x1 = 0.5065	x1 = 0.5908	x1 = 0.6928	x1 = 0.7919	x1 = 0.878
303.15 K	2.972	2.863	2.805	2.802	2.828	2.881	2.952	3.068	3.225	–
313.15 K	2.322	2.257	2.224	2.215	2.23	2.272	2.328	2.415	2.515	2.61

O=S(=O)([O-])[O-].[Na+].[Na+] + O
Conditions	viscosity [mPa·s]
293.15 K, 100 kPa, x1 = 0.003594	1.085
293.15 K, 100 kPa, x1 = 0.004923	1.125
293.15 K, 100 kPa, x1 = 0.01069	1.29
293.15 K, 100 kPa, x1 = 0.01596	1.483
293.15 K, 100 kPa, x1 = 0.02116	1.67
293.15 K, 100 kPa, x1 = 0.02795	1.939
293.15 K, 101.3 kPa, x1 = 0.0009	1.025
293.15 K, 101.3 kPa, x1 = 0.0018	1.046
293.15 K, 101.3 kPa, x1 = 0.00893	1.236
293.15 K, 101.3 kPa, x1 = 0.0125	1.349
293.15 K, 101.3 kPa, x1 = 0.0177	1.548
293.15 K, 101.3 kPa, x1 = 0.02116	1.701
298.15 K, 100 kPa, x1 = 6e-05	0.8907
298.15 K, 100 kPa, x1 = 0.00013	0.8915
298.15 K, 100 kPa, x1 = 0.00025	0.8935
298.15 K, 100 kPa, x1 = 0.00038	0.8955
298.15 K, 100 kPa, x1 = 0.003594	0.967
298.15 K, 100 kPa, x1 = 0.01069	1.148
298.15 K, 100 kPa, x1 = 0.01596	1.315
298.15 K, 100 kPa, x1 = 0.02116	1.508
298.15 K, 100 kPa, x1 = 0.02795	1.766
298.15 K, 101 kPa, x1 = 0.00893	1.099
298.15 K, 101 kPa, x1 = 0.0168	1.349
298.15 K, 101 kPa, x1 = 0.0222	1.556
298.15 K, 101 kPa, x1 = 0.03141	2.023
298.15 K, 101.3 kPa, x1 = 0.0009	0.9113
298.15 K, 101.3 kPa, x1 = 0.0018	0.9298
298.15 K, 101.3 kPa, x1 = 0.00893	1.1
298.15 K, 101.3 kPa, x1 = 0.0125	1.201
298.15 K, 101.3 kPa, x1 = 0.0177	1.374
298.15 K, 101.3 kPa, x1 = 0.02116	1.505
298.15 K, 101.3 kPa, x1 = 0.02631	1.72
298.15 K, 101.33 kPa, x1 = 0.03319	1.746
303.15 K, 100 kPa, x1 = 0.003594	0.868
303.15 K, 100 kPa, x1 = 0.01069	1.025
303.15 K, 100 kPa, x1 = 0.01596	1.171
303.15 K, 100 kPa, x1 = 0.02116	1.343
303.15 K, 100 kPa, x1 = 0.02795	1.584
303.15 K, 101.3 kPa, x1 = 0.0009	0.8166
303.15 K, 101.3 kPa, x1 = 0.0018	0.8339
303.15 K, 101.3 kPa, x1 = 0.00893	0.9866
303.15 K, 101.3 kPa, x1 = 0.0125	1.076
303.15 K, 101.3 kPa, x1 = 0.0177	1.229
303.15 K, 101.3 kPa, x1 = 0.02116	1.345
303.15 K, 101.3 kPa, x1 = 0.02631	1.531
308.15 K, 100 kPa, x1 = 6e-05	0.7195
308.15 K, 100 kPa, x1 = 0.00013	0.7205
308.15 K, 100 kPa, x1 = 0.00025	0.722
308.15 K, 100 kPa, x1 = 0.00038	0.724
308.15 K, 100 kPa, x1 = 0.00128	0.7637
308.15 K, 100 kPa, x1 = 0.003594	0.787
308.15 K, 100 kPa, x1 = 0.01069	0.933
308.15 K, 100 kPa, x1 = 0.01596	1.053
308.15 K, 100 kPa, x1 = 0.02116	1.205
308.15 K, 100 kPa, x1 = 0.02795	1.419
308.15 K, 101.3 kPa, x1 = 0.0009	0.7374
308.15 K, 101.3 kPa, x1 = 0.0018	0.7529
308.15 K, 101.3 kPa, x1 = 0.00893	0.8914
308.15 K, 101.3 kPa, x1 = 0.0125	0.9716
308.15 K, 101.3 kPa, x1 = 0.0177	1.107
308.15 K, 101.3 kPa, x1 = 0.02116	1.21
308.15 K, 101.3 kPa, x1 = 0.02631	1.373
308.65 K, 100 kPa, x1 = 0.004923	0.803
318.15 K, 101.3 kPa, x1 = 0.0009	0.6114
318.15 K, 101.3 kPa, x1 = 0.0018	0.624
318.15 K, 101.3 kPa, x1 = 0.00893	0.7405
318.15 K, 101.3 kPa, x1 = 0.0125	0.8058
318.15 K, 101.3 kPa, x1 = 0.0177	0.916
318.15 K, 101.3 kPa, x1 = 0.02116	0.9978
318.15 K, 101.3 kPa, x1 = 0.02631	1.127
323.15 K, 101 kPa, x1 = 0.00893	0.676
323.15 K, 101 kPa, x1 = 0.0168	0.819
323.15 K, 101.33 kPa, x1 = 0.05655	1.545
